Here are results for 20 molecules from US11878975B2, “Substituted indole compounds useful as TLR inhibitors” (BRISTOL-MYERS SQUIBB COMPANY, priority 2017, dated 2024).

Bounds are passed on as bounds.

Assay type in all cases: cell-based
The target in one experiment is T1, human TLR8 (Homo sapiens, UniProt Q9NR97).
T1 construct: host or cells: HEK-Blue cells
T1 sequence (Q9NR97 27-1041): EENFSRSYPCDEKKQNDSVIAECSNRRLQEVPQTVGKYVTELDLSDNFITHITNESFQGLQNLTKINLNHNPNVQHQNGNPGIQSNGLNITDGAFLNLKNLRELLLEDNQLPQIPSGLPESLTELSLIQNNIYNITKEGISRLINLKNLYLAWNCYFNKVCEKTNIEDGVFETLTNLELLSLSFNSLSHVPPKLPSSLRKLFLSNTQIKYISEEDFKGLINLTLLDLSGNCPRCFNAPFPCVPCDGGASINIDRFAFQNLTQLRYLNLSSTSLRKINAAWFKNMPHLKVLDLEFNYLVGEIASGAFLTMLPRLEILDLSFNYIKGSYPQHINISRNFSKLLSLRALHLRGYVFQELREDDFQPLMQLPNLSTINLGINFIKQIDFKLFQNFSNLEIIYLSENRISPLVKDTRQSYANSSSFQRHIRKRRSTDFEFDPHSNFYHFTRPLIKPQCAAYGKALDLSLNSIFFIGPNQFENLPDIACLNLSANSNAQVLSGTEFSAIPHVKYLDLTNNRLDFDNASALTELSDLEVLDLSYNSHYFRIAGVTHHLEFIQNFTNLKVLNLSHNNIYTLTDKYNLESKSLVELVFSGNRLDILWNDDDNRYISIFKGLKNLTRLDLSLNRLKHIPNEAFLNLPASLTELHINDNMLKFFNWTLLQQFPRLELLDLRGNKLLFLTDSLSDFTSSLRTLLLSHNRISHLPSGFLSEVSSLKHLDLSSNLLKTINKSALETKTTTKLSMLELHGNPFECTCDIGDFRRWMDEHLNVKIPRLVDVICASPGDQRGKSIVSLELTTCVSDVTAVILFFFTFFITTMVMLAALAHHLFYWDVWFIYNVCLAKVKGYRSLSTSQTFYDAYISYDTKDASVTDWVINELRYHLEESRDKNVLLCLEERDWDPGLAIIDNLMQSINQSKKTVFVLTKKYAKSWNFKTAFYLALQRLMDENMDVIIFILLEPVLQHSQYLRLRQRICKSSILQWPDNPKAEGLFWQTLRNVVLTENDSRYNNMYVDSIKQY
Put plainly: TLR8 inhibition reporter assay (HEK-Blue cells, SEAP reporter, R848 stimulation). Particulars: HEK-Blue cells overexpressing human TLR8, SEAP reporter, R848 15.9 μM. Summed up:
(§1)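 Ligand levels: TLR7 gardiquimod 7.5 μM, TLR8 R848 15.9 μM, TLR9 ODN2006 5 nM, added after 30 min room-temperature compound pre-incubation at 0.05 nM-50 μM. Reporter SEAP read with HEK-Blue Detection reagent after 22 h, 37° C. Inhibition expressed as % reduction relative to agonist-plus-DMSO and known-inhibitor controls.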
(In a reporter assay the amount or activity of a reporter protein is the signal.)

A further experiment addresses T2, human TLR9 (Homo sapiens, UniProt Q9NR96).
T2 construct: host or cells: HEK-Blue cells
T2 sequence (Q9NR96 26-1032): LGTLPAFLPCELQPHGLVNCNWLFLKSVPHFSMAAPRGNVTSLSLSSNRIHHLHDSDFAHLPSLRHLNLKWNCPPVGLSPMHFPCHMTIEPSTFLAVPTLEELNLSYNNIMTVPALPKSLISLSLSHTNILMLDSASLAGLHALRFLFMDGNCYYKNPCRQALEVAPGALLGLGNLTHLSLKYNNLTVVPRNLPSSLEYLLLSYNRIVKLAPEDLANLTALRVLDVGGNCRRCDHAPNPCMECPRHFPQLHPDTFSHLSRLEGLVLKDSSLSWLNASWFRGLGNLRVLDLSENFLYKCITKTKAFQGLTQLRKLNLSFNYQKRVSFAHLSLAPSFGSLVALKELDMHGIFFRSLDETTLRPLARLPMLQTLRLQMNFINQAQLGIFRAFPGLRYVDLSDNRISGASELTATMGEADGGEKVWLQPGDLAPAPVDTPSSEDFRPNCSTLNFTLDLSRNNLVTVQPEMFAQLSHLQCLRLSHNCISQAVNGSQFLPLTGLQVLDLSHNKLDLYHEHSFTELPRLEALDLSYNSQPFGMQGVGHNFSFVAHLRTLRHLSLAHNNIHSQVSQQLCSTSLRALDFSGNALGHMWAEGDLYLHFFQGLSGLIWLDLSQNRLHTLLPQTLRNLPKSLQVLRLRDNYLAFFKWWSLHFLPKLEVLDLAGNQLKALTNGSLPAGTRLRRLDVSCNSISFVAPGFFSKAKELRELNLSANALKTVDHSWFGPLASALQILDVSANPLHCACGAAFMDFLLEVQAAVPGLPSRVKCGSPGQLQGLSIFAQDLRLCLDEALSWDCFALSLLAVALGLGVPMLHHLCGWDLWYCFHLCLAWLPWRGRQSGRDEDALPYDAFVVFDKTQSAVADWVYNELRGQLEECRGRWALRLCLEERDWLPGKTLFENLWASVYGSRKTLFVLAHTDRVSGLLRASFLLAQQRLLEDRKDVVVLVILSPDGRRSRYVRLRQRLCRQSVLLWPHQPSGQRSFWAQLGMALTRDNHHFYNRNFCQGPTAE
Put plainly: TLR9 inhibition reporter assay (HEK-Blue cells, SEAP reporter, ODN2006 stimulation). The note with it: HEK-Blue cells overexpressing human TLR9, SEAP reporter, ODN2006 5 nM. Summed up: as §1

The target in the next experiment is T3, human TLR7 (Homo sapiens, UniProt Q9NYK1).
T3 construct: host or cells: HEK-Blue cells
T3 sequence (Q9NYK1 27-1049): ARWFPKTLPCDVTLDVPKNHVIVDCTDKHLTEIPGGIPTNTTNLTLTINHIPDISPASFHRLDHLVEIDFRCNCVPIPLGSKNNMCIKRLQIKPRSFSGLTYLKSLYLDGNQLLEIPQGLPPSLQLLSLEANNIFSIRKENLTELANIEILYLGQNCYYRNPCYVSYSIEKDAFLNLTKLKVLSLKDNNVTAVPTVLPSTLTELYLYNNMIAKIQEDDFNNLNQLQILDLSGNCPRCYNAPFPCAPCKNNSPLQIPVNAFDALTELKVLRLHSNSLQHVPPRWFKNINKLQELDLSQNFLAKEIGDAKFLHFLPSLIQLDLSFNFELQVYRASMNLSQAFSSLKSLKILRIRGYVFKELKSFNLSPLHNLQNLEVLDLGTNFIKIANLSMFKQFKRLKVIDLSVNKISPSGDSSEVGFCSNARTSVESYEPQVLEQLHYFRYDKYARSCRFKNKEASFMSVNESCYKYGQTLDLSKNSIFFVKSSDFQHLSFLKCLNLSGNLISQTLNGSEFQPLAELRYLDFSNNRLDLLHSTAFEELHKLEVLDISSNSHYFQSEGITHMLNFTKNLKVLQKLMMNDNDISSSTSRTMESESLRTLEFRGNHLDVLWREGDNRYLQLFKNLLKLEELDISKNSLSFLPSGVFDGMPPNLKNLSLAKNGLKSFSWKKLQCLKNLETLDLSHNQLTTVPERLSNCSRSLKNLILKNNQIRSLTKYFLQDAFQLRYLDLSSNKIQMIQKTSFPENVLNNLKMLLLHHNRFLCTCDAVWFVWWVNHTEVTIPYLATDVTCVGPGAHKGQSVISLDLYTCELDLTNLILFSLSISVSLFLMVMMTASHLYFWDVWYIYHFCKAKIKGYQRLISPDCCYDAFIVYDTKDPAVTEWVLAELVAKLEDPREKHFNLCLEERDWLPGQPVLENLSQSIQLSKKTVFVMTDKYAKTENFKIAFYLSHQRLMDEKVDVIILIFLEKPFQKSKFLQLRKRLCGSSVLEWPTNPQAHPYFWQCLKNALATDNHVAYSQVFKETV
Nature of the experiment: TLR7 inhibition reporter assay (HEK-Blue cells, SEAP reporter, gardiquimod stimulation). The note with it: HEK-Blue cells overexpressing human TLR7, SEAP reporter, gardiquimod 7.5 μM. A digest of the protocol:
as §1

As to `CNC(=O)CN1CCCC(c2ccc3[nH]c(-c4cn5ncnc5c(C)c4C)c(C(C)C)c3c2)C1` (stereo not drawn) [Example 231], the concentration for half-maximal inhibition (IC50) (in general, the midpoint of a concentration-inhibition curve) against human TLR8 worked out at 4.6 nM; at human TLR9 it was 17300 nM; at human TLR7, 9 nM.
The like results for `CNC1CCC(c2ccc3[nH]c(-c4cc(C)c5ncnn5c4)c(C(C)C)c3c2)CC1` (single isomer, unassigned) [Example 58] were, in that order, 6.6 nM, 3100 nM and 2 nM.
The like results for `COCCN(C)C1CCC(c2ccc3[nH]c(-c4cn5ncnc5c(C)c4C)c(C(C)C)c3c2)CC1` (single isomer, unassigned) [Example 153, 4-(2-(7,8-dimethyl-[1,2,4]triazolo[1,5-a]pyridin-6-yl)-3-isopropyl-1H-indol-5-yl)-N-(2-methoxyethyl)-N-methylcyclohexanamine] were, in that order, 0.72 nM, 2140 nM and 0.5 nM.
The like results for `COc1cc(-c2[nH]c3ccc(C4CN(C(=O)CN5CCS(=O)(=O)CC5)CCO4)cc3c2C(C)C)cn2ncnc12` (stereo not drawn) [Example 360] were, in that order, 68 nM, over 50000 nM and 11 nM.
In the case of `COc1cc(-c2[nH]c3ccc(C4CCC(NC5CC5)CC4)cc3c2C(C)C)cn2ncnc12` (stereo not drawn) [Example 11], the results for the IC50 against human TLR8, at human TLR9 and against human TLR7 were 3.7 nM, 2070 nM and 2 nM, respectively.
In the case of `Cc1c(-c2[nH]c3ccc(C4CN(CC(=O)N(C)C)C4)cc3c2C(C)C)cn(C)c(=O)c1C` [Example 489], the 50% inhibitory concentration (IC50) against human TLR8 worked out at 20 nM; on human TLR9, 14900 nM; at human TLR7 it was 128 nM.
The like results for `COc1cc(-c2[nH]c3ccc(C4CCC(NC(=O)CN5CC6(COC6)C5)CC4)cc3c2C(C)C)cn2ncnc12` (stereo not drawn) [Example 138] were, in that order, 2.5 nM, 4440 nM and 0.41 nM.
The matching figures for `Cc1c(-c2[nH]c3ccc(C4CC(N)C4)cc3c2C(C)C)cn(C)c(=O)c1C` (stereo not drawn) [Example 492]: 1.6 nM, 6070 nM and 4 nM.
For the molecule `COc1cc(-c2[nH]c3ccc(C4CCC(N5CCC[C@H]5C(N)=O)CC4)cc3c2C(C)C)cn2ncnc12` (stereo partly drawn) [Example 29], the 50% inhibitory concentration (IC50) was found to be 1.9 nM on human TLR8, 909 nM against human TLR9 and 0.26 nM at human TLR7.
Turning to `CC(C)c1c(-c2ccnc3[nH]ncc23)[nH]c2ccc(C3CCC(OC4CCNCC4)CC3)cc12` (stereo not drawn) [Example 502], the results for the IC50 against human TLR8, against human TLR9 and against human TLR7 were 23 nM, 313 nM and 71 nM, respectively.
The like results for `Cc1c(-c2[nH]c3ccc(C4CN(CC(N)=O)C4)cc3c2C(C)C)cn2ncnc2c1C` [Example 548] were, in that order, 5.1 nM, 8050 nM and 4 nM.
The like results for `CN[C@@H](C)C(=O)N1CCCC(c2ccc3[nH]c(-c4cc(C)nc(C)c4)c(C(C)C)c3c2)C1` (stereo partly drawn) [Example 216] were, in that order, 18 nM, 303 nM and 7 nM.
The like results for `Cc1c(-c2[nH]c3ccc(C4CCC(NC5COC5)CC4)cc3c2C(C)C)cn(C)c(=O)c1C` (stereo not drawn) [Example 474] were, in that order, 19 nM, 28900 nM and 45 nM.
`Cc1cc(-c2[nH]c3ccc([C@H]4C[C@H]4C(=O)NC4CCC5CNCC54)cc3c2C(C)C)ccn1` (stereo partly drawn) [Example 457]: the results for the IC50 against human TLR8, at human TLR9 and against human TLR7 were 50 nM, 646 nM and 189 nM, respectively.
For `CCCN1CC(c2ccc3[nH]c(-c4cn(C)c(=O)c(Cl)c4C)c(C(C)C)c3c2)C1` [Example 500], the IC50 on human TLR8 turned out to be 13 nM; at human TLR9, 5370 nM; against human TLR7, 16 nM.
The matching figures for `Cc1cc(-c2[nH]c3ccc(C4CCC(NC5COC5)CC4)cc3c2C(C)C)cn2ncnc12` (stereo not drawn) [Example 59]: 0.88 nM, 3140 nM and 0.14 nM.
For the molecule `Cc1cc(-c2[nH]c3ccc(C4CN(CC(C)(C)O)CCO4)cc3c2C(C)C)cc(C)n1` (stereo not drawn) [Example 358], the IC50 against human TLR8 is 1.9 nM; at human TLR9, 4840 nM; against human TLR7 it was 91 nM.
The like results for `CC(C)c1c(-c2ccnc3[nH]ncc23)[nH]c2ccc(C3CCCNCC3)cc12` (stereo not drawn) [Example 501] were, in that order, 4.3 nM, 739 nM and 12 nM.
The like results for `COc1cc(-c2[nH]c3ccc(CC4CNC4)cc3c2C(C)C)cn2ncnc12` [Example 430] were, in that order, 41 nM, 860 nM and 12 nM.
As to `Cc1cc(-c2[nH]c3ccc([C@@H]4C[C@H]4C(=O)NC4CCN(C(C)C)CC4)cc3c2C(C)C)ccn1` [Example 458], the 50% inhibitory concentration (IC50) was found to be 21 nM at human TLR8, 2270 nM on human TLR9 and 57 nM against human TLR7.
